In one data set the test system is Organisms (not named). The data set can be described thus: organism not typed. How it is done: Required quantity of the compound was weighed and dissolved in water/dimethyl sulphoxide/suitable solvent to yield 1 mg/ml stock solution. The stock solution was diluted in MHB/CAMHB to yield 8 μg/ml or 64 μg/ml or 512 μg/ml solution as per requirement. Serial two fold dilutions of the compound was prepared using MHB/CAMHB in 96 well microtitre trays using a multichannel pipette. Organisms were grown in MHB/CAMHB for 4-5 hrs at 35±2° C., 110±10 rpm. Optical density (OD) of the cultures is adjusted to 625 nm which corresponds to 0.5 Mc Farland standard (1-2×10^8 cfu/ml) and further diluted to achieve a final inoculum of […]×10^4 cfu/well. Broth, compound and organism controls were set up. Microdilution trays were incubated at 35±2° C. for 16-20 hours in an ambient air incubator. After the incubation period, growth of organism in the wells was detected by unaided eye facilitated by a viewing device.

The subject of another data set is 4T1 cells. To be noted: 3 mg/kg s.c.; during dosing period.
A further data set has as its system B16F10 cells. To be noted: 5 mg/kg s.c.; during the period of dosing.
A further data set can be described thus: in vitro. The procedure:
Briefly, overnight fasted rats were sacrificed by cervical dislocation; kidneys were removed, washed with chilled saline and decapsulated. The renal tissue was sliced and a 5% homogenate was made in buffer containing 2 mM Tris-HCl, 50 mM mannitol pH 7.1 using 10 strokes in a Porter-Elvelhemhomogeniser. The homogenate was centrifuged at 250×g for 5 min and the pellet was re-homogenized (four strokes) in the same buffer. Both the homogenate preparations were pooled (an aliquot of sample was taken for enzyme assays), allowed to remain at 4° C. for 15 min and filtered using a nylon mesh cloth. To this, a 50% PEG solution in water was added to make a final concentration of 10% PEG, stirred for 15 min continuously at 4° C. and centrifuged at 7500×g for 10 min. The pellet was discarded and the supernatant was spun at 12,000×g for 10 min. This pellet was discarded and the supernatant was centrifuged at 27,000×g for 40 min. To the pellet, 15 ml suspension buffer containing 10 mM Tris-HCl and 300 mM mannitol, pH 7.1 was added, centrifuged at 27,000×g for 40 min. The pellet was washed twice with the same suspension buffer and finally suspended 1 ml of the same buffer using a syringe fitted with a 26-gauge needle.
1. Microsomal protein working solution was prepared as mentioned above (0.55 mg/ml) in 50 mM potassium phosphate buffer (pH 7.4)
2. Test compound (compound 69) working stock solutions at concentration of 4 μM was prepared in 50 mM potassium phosphate buffer (pH 7.4)
3. 125 μL of test compound (compound 69) from step 2 diluted with 100 μL of buffer and 275 μl of microsomal protein solution from step 2 was pre-incubated separately for 10 mins at 37° C.
4. Both the test solution from step 3 was mixed together and the reaction mixture was aliquoted at various time intervals and processed by SPE method.
Kidney brush border stability of the compounds was calculated as the amount of substrate metabolized by the incubation with kidney brush border microsomes. Initial amount of substrate (concentration at T0) was measured and KBBM stability was assessed by the disappearance of compound at various time points based on the change in analyte to internal standard peak height ratio using LCMS/MS (API 4000, AB Sciex). Results are expressed as mean±SD of test compound remaining at any given time point (Table VI).

For data set [1], the system named is mouse splenocytes inhibited by MDA-MB-231 tumour cells expressing PD-L1. The data set can be described thus: Mouse splenocyte proliferation rescue, CFSE method. The format is cell-based. To be noted: screened at 100 nm concentration and compared with 100 nm Comp 8. How it is done: Mouse splenocytes harvested from 6-8 weeks old C57 BL6 mice.; RPMI 1640 (GIBCO, Cat #11875); DMEM with high glucose (GIBCO, Cat #D6429); Fetal Bovine Serum [Hyclone, Cat #SH30071.03]; Pencilin (10000 unit/ml)-Streptomycin(10,000 μg/ml) Liquid (GIBCO, Cat #15140-122); MEM Sodium Pyruvate solution 100 mM (100×), Liquid (GIBCO, Cat #11360); Nonessential amino acid (GIBCO, Cat #11140); L-Glutamine (GIBCO, Cat #25030); Anti-CD3 antibody (eBiosciences—16-0032); Anti-CD28 antibody (eBiosciences—16-0281); ACK lysis buffer (1 mL) (GIBCO, Cat #-A10492); Histopaque (density—1.083 gm/ml) (SIGMA 10831); Trypan blue solution (SIGMA-T8154); Hemacytometer (Bright line-SIGMA Z359629); FACS Buffer (PBS/0.1% BSA): Phosphate Buffered Saline (PBS) pH 7.2 (HiMedia TS1006) with 0.1% Bovine Serum Albumin (BSA) (SIGMA A7050) and sodium azide (SIGMA 08591); 5 mM stock solution of CFSE: CFSE stock solution was prepared by diluting lyophilized CFSE with 180 μL of Di methyl Sulfoxide (DMSO C2H6SO, SIGMA-D-5879) and aliquoted in to tubes for further use. Working concentrations were titrated from 10 μM to 1 μM. (eBioscience—650850-85); 96-well format ELISA plates (Corning CLS3390); BD FACS caliber (E6016).
Splenocytes harvested in a 50 ml falcon tube by mashing spleen in a 40 μm cell strainer were further treated with 1 ml ACK lysis buffer for 5 mins at RT. After washing with 9 ml of RPMI complete media, cells re-suspended in 3 ml of 1×PBS in a 15 ml tube. 3 ml of histopaque was added very carefully to the bottom of the tube without disturbing overlaying splenocyte suspension. Spin the tube at 800×g for 20 mins at RT. Opaque layer of lymphocytes is collected carefully without disturbing/mixing any of the layers. Cells washed twice with cold 1×PBS followed by total cell counting using trypan blue exclusion method and used further for cell based assays.
Tumour cells (MDMBA231) are cultured and maintained in high glucose complete DMEM media. 1×10^5 tumour cells were plated in 96 well plates along with required conc. of PD1 derived peptide and allowed to adhere at 37° C. for 4 hrs. 1×10^6 cells/ml of harvested splenocytes are treated with 5 μM of CFSE in pre warmed 1×PBS/0.1% BSA solution for 10 mins at 37° C. Excess CFSE was quenched using 5 volumes of ice-cold culture media to the cells and incubated on ice for 5 mins. CFSE labeled splenocytes were further given three washes with ice cold complete DMEM media. CFSE labeled 1×10^5 splenocytes added to above wells containing tumours cells and test compounds. Splenocytes were stimulated with anti-CD3 and anti-CD28 antibody (1 μg/ml each) and the co-culture was further incubated for 72 hrs at 37° C. with 5% CO2. Cells were harvested and washed thrice with ice cold FACS buffer and % proliferation was analyzed using a FACS caliber with 488 nm excitation and 521 nm emission filters. Each experimental condition was carried out in triplicates and each experiment at least carried out three times. Splenocyte proliferation was analyzed using cell quest FACS program and fold induction was calculated by normalizing individual values to percent background proliferation. Fold induction=Percent splenocyte proliferation/percent background proliferation Stimulated splenocytes: Splenocytes+anti-CD3/CD28 stimulation Background proliferation: Splenocytes+anti-CD3/CD28+Tumour Percent Proliferation rescue={(compound percent proliferation−Background percent proliferation)/(Stimulated percent proliferation−Background percent proliferation)}*100.

Where [2] appears, read: rat, kidney brush border membrane (KBBM) preparation, pH 7.4.

Values after ≈ are worked out from the molar mass of the structure shown. Where two headings read alike, the source gives them in different places. Where a SMILES comes first, the peptide text is derived from it. Bridges are numbered along the chain shown (N, C = ends). Roman numbers before positions name the chains, in order.

Protocol for 4T1 cells: On day 0, 4T1 cells grown in RPMI 1640 containing 10% FBS at 70 to 75% confluency were harvested and 0.1×10^6 cells per animal were injected along with matrigel orthotopically to mammary fat pad. […] Vehicle control group of mice received only saline. Each group consisted of ten animals. Body weight and clinical signs were recorded daily. Tumour volume was measured by slide callipers.
Protocol for B16F10 cells: C57/Black6 female mice (Aurigene, Bangalore, India) aged 6 to 8 weeks were used for the experiment. Animals were acclimatized for a week in the experimental room before conducting the experiment.
On day 0, B16F10 cells grown in DMEM containing 10% FBS at 70 to 75% confluency were harvested and 1×10^6 cells per animal were injected to mice subcutaneously on the right flank region. […] Vehicle control group of mice received only saline. Each group consisted of ten animals. Body weight and clinical signs were recorded daily.

For the molecule `CC[C@H](C)[C@H](NC(=O)[C@H](CCC(N)=O)NC(=O)[C@H](C)NC(=O)[C@H](CCCCN)NC(=O)[C@@H]1CCCN1C(=O)[C@H](C)NC(=O)[C@H](CC(C)C)NC(=O)[C@H](CCC(N)=O)NC(=O)[C@@H](NC(=O)[C@@H](NC(=O)[C@H](CCCNC(=N)N)NC(=O)[C@H](Cc1ccccc1)NC(=O)C(CCCCNC(=O)[C@H](Cc1ccccc1)NC(=O)[C@H](CO)NC(=O)[C@H](CCC(=O)O)NC(=O)[C@H](CO)NC(=O)[C@@H](NC(=O)[C@H](CC(N)=O)NC(=O)[C@@H](N)CO)[C@@H](C)O)NC(=O)[C@H](Cc1ccccc1)NC(=O)[C@H](CO)NC(=O)[C@H](CCC(=O)O)NC(=O)[C@H](CO)NC(=O)[C@@H](NC(=O)[C@H](CC(N)=O)NC(=O)[C@@H](N)CO)[C@@H](C)O)C(C)C)[C@@H](C)O)C(=O)N[C@@H](CCCCN)C(=O)N[C@@H](CCC(=O)O)C(N)=O` (stereo partly shown) [Compound 8], the MIC – broadly, the lowest concentration found to suppress growth – in the data set with Organisms (not named) (broth microdilution, 16-20 hours at 35±2° C.) was more than 32 µg/mL. The Body weight result in the data set on 4T1 cells is “no body weight reduction”. In the data set on B16F10 cells, the Body weight result was “no body weight reduction” and the Clinical signs entry is reported as “no clinical signs”.
Consider `CC[C@H](C)[C@H](NC(=O)[C@H](CCCCN)NC(=O)[C@H](C)NC(=O)[C@H](CCCCN)NC(=O)[C@@H]1CCCN1C(=O)[C@H](Cc1c[nH]cn1)NC(=O)[C@H](CC(C)C)NC(=O)[C@H](CCC(N)=O)NC(=O)[C@@H](NC(=O)[C@@H](NC(=O)[C@H](CCC(N)=O)NC(=O)[C@H](Cc1ccccc1)NC(=O)[C@H](CCCCNC(=O)[C@H](CC(C)C)NC(=O)[C@H](CC(=O)O)NC(=O)[C@H](CCC(=O)O)NC(=O)[C@H](CO)NC(=O)[C@H](Cc1c[nH]c2ccccc12)NC(=O)[C@H](CC(N)=O)NC(=O)[C@@H](N)CO)NC(=O)[C@H](CC(C)C)NC(=O)[C@H](CC(=O)O)NC(=O)[C@H](CCC(=O)O)NC(=O)[C@H](CO)NC(=O)[C@H](Cc1c[nH]c2ccccc12)NC(=O)[C@H](CC(N)=O)NC(=O)[C@@H](N)CO)[C@@H](C)CC)[C@@H](C)CC)C(=O)N[C@@H](CCC(=O)O)C(=O)N[C@@H](CCC(=O)O)C(N)=O` [Compound 69] (I: H-SNWSEDLKFQIIQLHPKAKIEE-NH2 / II: H-SNWSEDL; amide I:8-II:C), for which the “RKBBM % compound remaining” value in “in vitro” (0 min) came to 100%. For the same molecule, in the data set “in vitro” (setting [2]), the share remaining (as a rule, the share of the starting amount still present when the sample was taken) at 10 min, 1 μM was 100%; the fraction remaining at 0.5 h, 1 μM was determined as 98%; the amount remaining at 1 h, 1 μM was 81%. The “Percent rescue for various compounds in mouse splenocyte proliferation CFSE based assay” value (shortened to “Percent rescue for various compounds”) in data set [1] worked out at 48%.
In the case of `O=C(O)c1cn(C2CC2)c2cc(N3CCNCC3)c(F)cc2c1=O` [ciprofloxacin], the MIC in the data set with Organisms (not named) was found to be 0.007 µg/mL (≈ 0.0211 µM).
As to `C[C@H]1COc2c(N3CCN(C)CC3)c(F)cc3c(=O)c(C(=O)O)cn1c23` [levofloxacin], the MIC in the data set on Organisms (not named) stood at 0.015 µg/mL (≈ 0.0415 µM).
Regarding “Biotin-Ahx-EKIQAKPAYWNLVK(KDTQNS)DTQNS-NH2 [Compound 61]”, in data set [1], the “Percent rescue for various compounds” value is on record as 67%.
“Biotin-Ahx-sntsesfk(sntsesf)frvtqlapkaqike-NH2 [Compound 60]”: the “Percent rescue for various compounds” value in data set [1] was 14.9%.
Regarding CGAISLAPKAQIKE-NH2 [Compound 5], the “Percent rescue for various compounds” value in data set [1] is recorded as 68%.
Same read-out and setting: next, EDRSQPGQDCR-NH2 [Compound 4]: 74.7%.
For the molecule FRVTQLAPKAQIKE-NH2 [Compound 43], in data set [1], the “Percent rescue for various compounds” value was found to be 66%.
With SNTSESF-NH2 [Compound 1], the “Percent rescue for various compounds” value in data set [1] is listed as 96.5%.
The same measure, in the same setting: next, SNTSESFFRVTQLAPKAQIKE-NH2 [Compound 26]: 86.6%.
As for “sntsesfk(sntsesf)frvtqlapkaqike-NH2 [Compound 13]”, the “Percent rescue in mouse splenocyte proliferation CFSE based assay (cell printed with nM, control peptide)” value in data set [1] (control peptide) is 0-12 nM-.

Values taken from US9783578B2, “Immunosuppression modulating compounds” (AURIGENE DISCOVERY TECHNOLOGIES LIMITED, priority 2010, dated 2017).
